Results: patent publication US5958770A, “Glycoalkaloids” (priority 1990, dated 1999)
Like-named read-outs stand apart in the source and are kept apart here.

Tests used:
[1] = test system: fibroblasts; test: Solamargine cytotoxicity in presence and absence of carbohydrates, fibroblasts; format: cell-based, human; conditions: Homo sapiens, Fibroblast, Fb, solamargine 3.1 μM/L, read-out: Percentage Survival
Protocol: A mixture of solasodine glycosides (BEC), of which the active compound is solamargine and from which the aglycone solasodine is derived was prepared for use in cytotoxicity assays as determined by the uptake of tritiated thymidine. Inhibition studies were carried out with lactose, lactosyl-albumin, galactose or rhamnose (Sigma Chemical Co., USA). All experimental replicates were related to their own controls. Total volume of replicates was 250 μl (carbohydrates added in 50 μl tissue culture media+10% fetal calf serum), and the cell concentrations were 8×10^4 /ml.

[2] = test system: human spermatozoa; test: Immobilization of spermatozoa; format: cell-based; conditions: for effect on spermatozoa (words): solamargine/eosin, FIG. 5
Protocol: In order to observe any immobilization of spermatozoa, sperm (10×10^6 /ml) (50 μl) were placed on a microscope slide separated from 50 μl of solamargine (1 mg/ml) by 5 μl of eosin. A cover slip was then placed over the slide. […] This is a standard method known in the art. It was noted that sperm was not present on the side of the slide where the drop of solasodine glycosides was placed.

C[C@@H]1CC[C@@]2(NC1)O[C@H]1C[C@H]3[C@@H]4CC=C5C[C@@H](O[C@@H]6O[C@H](CO)[C@@H](O[C@@H]7O[C@@H](C)[C@H](O)[C@@H](O)[C@H]7O)[C@H](O)[C@H]6O[C@@H]6O[C@@H](C)[C@H](O)[C@@H](O)[C@H]6O)CC[C@]5(C)[C@H]4CC[C@]3(C)[C@H]1[C@@H]2C [Solamargine, solamargine] gave a viability at 3.1 µM ([1]; 1.1 μM/L galactose, *** p < 0.001) of 101%, a viability at 3.1 µM ([1]; 1.1 μM/L lactose, *** p < 0.001) of 100% and a viability at 3.1 µM ([1]; 1.1 μM/L rhamnose, *** p < 0.001) of 87%. For the same compound, the viability at 3.1 µM ([1]; no carbohydrate) was 58 ± 9.6%, the “time to immobilization of sperm” value ([2]; solamargine 1 mg/ml) was at most 15 s and the “effect on spermatozoa (words)” value [2] was “inhibit human spermatozoal motility”. For the same compound, the “effect on spermatozoa (words)” value ([2]; listed as solamargine) was “dead intact spermatozoa”.
